The values below come from ChEMBL document CHEMBL1144255, “A non-crosslinking platinum-acridine hybrid agent shows enhanced cytotoxicity compared to clinical BCNU and cisplatin in glioblastoma cells” (Bioorg Med Chem Lett, 2005).

The nature of assay [1]: In vitro inhibitory concentration against growth of SNB19 glioblastoma cell line in clonogenic survival assay after 24 hr. It is filed as functional, cell-based, Homo sapiens.
The test system of a further assay is U-87 MG. The assay is described as follows: In vitro inhibitory concentration against growth of U87MG glioblastoma cell line in clonogenic survival assay after 24 hr. It is filed as functional, cell-based, Homo sapiens, U-87MG ATCC.
[2] abbreviates: Homo sapiens, Glioblastoma, 24 h.

`O=NN(CCCl)C(=O)NCCCl` [CARMUSTINE]: the IC50 came to 2370 nM in assay [1] (setting [2]) and 1420 nM in the assay with U-87 MG (Homo sapiens, U-87 MG, 24 h).

CISPLATIN: the IC50 was 810 nM in assay [1] (glioblastoma) and 490 nM in the assay on U-87 MG (u-87mg atcc).

For the molecule `CNC(=S)N(C)CCNc1c2ccccc2nc2ccccc12`, the IC50 is 2460 nM in assay [1] (setting [2]) and 1830 nM in the assay on U-87 MG (Homo sapiens, U-87 MG, 24 h).

As a reminder, the IC50 is the concentration that gives 50% inhibition.
